# Where “and” joins values, the source holds several entries; their conditions need not be identical. Identical values can stand only once.
# What was measured:
# [1] = system: adolescents with Fontan physiology; experiment: FUEL trial: safety, adverse event reports; assay type: in vivo, human
# Source text: The primary outcome was the change in oxygen consumption at peak exercise (max or peak VO2) from baseline to the 26-week visit. Secondary exercise outcomes included change in additional measures at maximal exertion, as well as change in measures of submaximal exercise at the ventilatory anaerobic threshold (VAT). The primary outcome for clinical secondary aims included change in myocardial performance index (MPI), an echocardiographically-derived measure of systolic and diastolic ventricular function, change in log-transformed reactive hyperemia index (lnRHI), a PAT-derived measure of peripheral vascular function, and change in log-transformed serum BNP level. Safety was monitored through adverse event reports, which were collected according to a pre-specified protocol of study coordinator outreach, and through ad hoc patient and family communication with members of the study team at each site.
# The primary outcome for clinical secondary aims included the between group differences in change in myocardial performance index (MPI), an echocardiographically-derived measure of systolic and diastolic ventricular function, change in log-transformed reactive hyperemia index (lnRHI), a PAT-derived measure of peripheral vascular function, and change in log-transformed serum BNP level. Measurements for each of these secondary outcomes were performed at core labs. Safety was monitored through adverse event reports, which were collected according to a pre-specified protocol of study coordinator outreach, and through ad hoc patient and family communication with members of the study team at each site.
# [2] = system: adolescents with Fontan physiology; conditions: phase I/II study, cited from earlier work
# [3] = system: adolescents with Single Ventricle Heart Disease who underwent Fontan palliation; experiment: FALD study (FUEL Extension): Enhanced Liver Fibrosis (ELF) score from serum HA, PIIINP, TIMP-1; assay type: in vivo, human; set-up: key to Baseline ELF, Mean (SD) / ELF Score, Post Baseline: ELF score: <7.7 none/mild, 7.7-9.8 moderate, 9.8-11.3 severe, >11.3 cirrhosis
# Source text: The FALD study, ClinicalTrials.gov Identifier: NCT03430583, which is incorporated herein by reference in its entirety, was an open-label extension study that integrated with the FUEL Extension Trial. […] Both the U− cohort and the U+ cohort had liver stiffness measured by ultrasound and MR elastography (where available), and ELF biomarkers analyzed, as described above. […] The Enhanced Liver Fibrosis (ELF) scores were based on the serum levels of hyaluronic acid (HA), amino-terminal propeptide of type III collagen (PIIINP), and tissue inhibitor of metalloproteinase-1 (TIMP-1). Testing was performed by the FUEL-OLE Central Laboratory using the serum samples. In accordance with prior studies, we assigned those patients with scores of <7.7 to the no-fibrosis or mild fibrosis group, 7.7-9.8 to the moderate fibrosis group, 9.8-11.3 to the severe fibrosis group, and >11.3 to the cirrhosis group. The primary outcome measure of the FALD study was the range of liver stiffness in adolescents with Single Ventricle Heart Disease who underwent Fontan palliation. Secondary outcome measures included the effect of drug therapy on liver stiffness, and the effect of drug therapy on Enhanced Liver Fibrosis (ELF) score. See Clinical Trials.gov identifier NCT03430583, at p. 3. It is to be understood that present invention contemplates udenafil drug products that are therapeutically equivalent to the udenafil drug products of the present invention.
# [4] = Cohort U+ & U− Pooled, baseline ELF Cirrhosis (N 17)
# [5] = Cohort U+ & U− Pooled, baseline ELF moderate fibrosis (N 20)
# [6] = Cohort U+ & U− Pooled, baseline ELF moderate fibrosis (N 20), listed as udenafil
# [7] = Cohort U+ & U− Pooled, baseline ELF severe fibrosis (N 36)
# [8] = Cohort U+, baseline ELF Cirrhosis (N 9)
# [9] = Cohort U+, baseline ELF moderate fibrosis (N 8)
# [10] = Cohort U+, baseline ELF severe fibrosis (N 15)
# [11] = Cohort U− (udenafil for 52 weeks), individual subject
# [12] = Cohort U−, baseline ELF Cirrhosis (N 8)
# [13] = Cohort U−, baseline ELF moderate fibrosis (N 12)
# [14] = Cohort U−, baseline ELF moderate fibrosis (N 12), listed as udenafil
# [15] = Cohort U−, baseline ELF severe fibrosis (N 21)
# [16] = FALD, cohort U+ (78 weeks udenafil)
smiles,measurement,setting,value
"CCCOc1ccc(S(=O)(=O)NCCC2CCCN2C)cc1-c1nc2c(CCC)nn(C)c2c(=O)[nH]1 (stereo not drawn) [Udenafil, udenafil]",Deaths in the study cohort,[1]; FUEL trial,no deaths
same,"Non-serious adverse event: Dizziness, participants","[1]; human, in vivo, 6 months",16 (8.0) n (%)
same,"Non-serious adverse event: Epistaxis, participants","[1]; human, in vivo, 6 months",21 (10.5) n (%)
same,"Non-serious adverse event: Flushing, participants","[1]; human, in vivo, 6 months",32 (16.0) n (%)
same,"Non-serious adverse event: Headache, participants","[1]; human, in vivo, 6 months",79 (39.5) n (%)
same,"Non-serious adverse event: Nausea/vomiting, participants","[1]; human, in vivo, 6 months",31 (15.5) n (%)
same,Participants who experienced a serious adverse event,"[1]; human, in vivo, 6 months",14
same,"Serious adverse events with possible, probable, or definite relationship to study drug, number of events","[1]; human, in vivo, 6 months",3
same,"Headache, facial flushing, abdominal pain, epistaxis, and erection (male participants), frequency vs placebo",[1]; in vivo,more common in the udenafil group
same,Priapism,[1]; in vivo,no reported episodes of priapism
same,"Non-serious adverse event: Increased erection, participants","[1]; male, human, in vivo, 6 months",13 (11.7) n (%)
same,Tolerability,"[2]; adolescents with Fontan physiology, all tested dosing regimens",demonstrated tolerability at all tested dosing regimens
same,"Average serum concentration, compared among dosing regimens",[2]; 87.5 mg twice daily,highest average serum concentration
same,Dose limiting adverse events,[2]; 87.5 mg twice daily,not associated with dose limiting adverse events
same,Patients with Improved ELF fibrosis category,"[3]; Cohort U+ & U− Pooled, 41/73",41/73 (56%) Improved
same,"Patients with post baseline ELF score Mild, n (%)",[3]; [4],0
same,"Patients with post baseline ELF score Sev, n (%)",[3]; [4],13 (76%)
same,"Patients with post baseline ELF score Sev, n (%)","[3]; Cohort U+ & U− Pooled, baseline ELF Cirrhosis (N 17), listed as udenafil",6
same,"Patients with post baseline ELF score Mild, n (%)",[3]; [5],1 (5%)
same,"Patients with post baseline ELF score Sev, n (%)",[3]; [5],8 (40%)
same,"Patients with post baseline ELF score Mild, n (%)",[3]; [6],1
same,"Patients with post baseline ELF score Sev, n (%)",[3]; [6],8
same,"Patients with post baseline ELF score Mild, n (%)",[3]; [7],0
same,"Patients with post baseline ELF score Sev, n (%)",[3]; [7],13 (36%)
same,"Patients with post baseline ELF score Sev, n (%)","[3]; Cohort U+ & U− Pooled, baseline ELF severe fibrosis (N 36), listed as udenafil",8
same,Patients with Improved ELF fibrosis category,"[3]; Cohort U+, 19/32",19/32 (59%) Improved
same,"Patients with post baseline ELF score Mild, n (%)",[3]; [8],0
same,"Patients with post baseline ELF score Sev, n (%)",[3]; [8],7 (78%)
same,"Patients with post baseline ELF score Sev, n (%)","[3]; Cohort U+, baseline ELF Cirrhosis (N 9), listed as udenafil",7
same,"Patients with post baseline ELF score Mild, n (%)",[3]; [9],0
same,"Patients with post baseline ELF score Sev, n (%)",[3]; [9],0
same,"Patients with post baseline ELF score Mild, n (%)",[3]; [10],0
same,"Patients with post baseline ELF score Sev, n (%)",[3]; [10],5 (33%)
same,"Patients with post baseline ELF score Sev, n (%)","[3]; Cohort U+, baseline ELF severe fibrosis (N 15), listed as udenafil",5
same,"ELF Score, % Change from Baseline",[3]; [11],−7.61% and −11.19% and −20.06% and −15.92% and 10.85% and 9.365%
same,"ELF Score, Change from Baseline",[3]; [11],−0.78 and −1.22 and −2.03 and −1.85 and 0.97 and 0.9 and 0.26
same,"ELF Score, Post Baseline","[3]; Cohort U− (udenafil for 52 weeks), individual subject, Post Baseline visit (52 week)",9.47 and 9.68 and 8.09 and 9.77 and 9.91 and 10.51 and 9.67
same,Patients with Improved ELF fibrosis category,"[3]; Cohort U−, 22/41",22/41 (54%) Improved
same,"Patients with post baseline ELF score Mild, n (%)",[3]; [12],0
same,"Patients with post baseline ELF score Sev, n (%)",[3]; [12],6 (75%)
same,"Patients with post baseline ELF score Sev, n (%)","[3]; Cohort U−, baseline ELF Cirrhosis (N 8), listed as udenafil",6
same,"Patients with post baseline ELF score Mild, n (%)",[3]; [13],1 (8%)
same,"Patients with post baseline ELF score Sev, n (%)",[3]; [13],8 (67%)
same,"Patients with post baseline ELF score Mild, n (%)",[3]; [14],1
same,"Patients with post baseline ELF score Sev, n (%)",[3]; [14],8
same,"Patients with post baseline ELF score Mild, n (%)",[3]; [15],0
same,"Patients with post baseline ELF score Sev, n (%)",[3]; [15],8 (38%)
same,"Patients with post baseline ELF score Sev, n (%)","[3]; Cohort U−, baseline ELF severe fibrosis (N 21), listed as udenafil",8
same,"ELF Percent Change: Week 52-Baseline, Median","[3]; FALD, Total",−7.2%
same,"Week 52 ELF, Median","[3]; FALD, Total",9.7
same,"Baseline ELF, Mean (SD)","[3]; FALD, Total (U+ and U−)",10.4
same,"Week 52 ELF, Mean (SD)","[3]; FALD, Total (U+ and U−)",9.8
same,"ELF Percent Change: Week 52-Baseline, Mean (SD)","[3]; FALD, Total, p <0.0001 vs 0",−6.8 (7.69) %
same,"Week 52 ELF, Median","[3]; FALD, cohort U+",9.6
same,"Baseline ELF, Mean (SD)","[3]; FALD, cohort U+ (6 months udenafil in FUEL before baseline)",10.5
same,"Baseline ELF, Mean (SD)","[3]; FALD, cohort U+ (6 months udenafil in FUEL before baseline), listed as udenafil",10.5
same,"Week 52 ELF, Mean (SD)","[3]; FALD, cohort U+ (18 months udenafil, 87.5 mg twice daily)",9.7
same,"Week 52 ELF, Mean (SD)","[3]; FALD, cohort U+ (18 months udenafil, 87.5 mg twice daily), listed as udenafil",9.7
same,Patients with improved ELF scores,[3]; [16],About 94%
same,Subjects with a decrease (improvement) in ELF score,[3]; [16],all but 2 of 31
same,"ELF Percent Change: Week 52-Baseline, Mean (SD)","[3]; FALD, cohort U+, p <0.0001 vs 0",−8.0 (5.56) %
same,"Average improvement of ELF score, baseline to week 52","[3]; FALD, cohort U+, p=0.0001",approximately 8%
same,"ELF Percent Change: Week 52-Baseline, Median","[3]; FALD, cohort U−",−6.1%
same,"Week 52 ELF, Median","[3]; FALD, cohort U−",9.9
same,"Week 52 ELF, Mean (SD)","[3]; FALD, cohort U− (1 year udenafil, 87.5 mg twice daily)",9.8
same,"Week 52 ELF, Mean (SD)","[3]; FALD, cohort U− (1 year udenafil, 87.5 mg twice daily), listed as udenafil",9.8
same,"Subjects with a decrease (improvement) in ELF score, number","[3]; FALD, cohort U− (52 weeks udenafil), of 40 subjects",about 30
same,"Baseline ELF, Mean (SD)","[3]; FALD, cohort U− (udenafil-naïve at baseline)",10.3
same,"Baseline ELF, Mean (SD)","[3]; FALD, cohort U− (udenafil-naïve at baseline), listed as udenafil",10.3
same,"Average improvement of ELF score, baseline to week 52","[3]; FALD, cohort U−, based on paired data",about 5.9%
same,"ELF Percent Change: Week 52-Baseline, Mean (SD)","[3]; FALD, cohort U−, p 0.0001 vs 0",−5.9 (8.98) %
same,Subjects with an improved ELF score,"[3]; FALD, overall (U+ and U−)",about 84%

# Reference: US20250186448A1 (Mezzion Pharma Co., Ltd., priority 2021, published 2025)
